Measurements taken from US20120100990A1, “4 -AMINOPICOLINATES AND THEIR USE AS HERBICIDES” (SYNGENTA CROP PROTECTION LLC, priority 2009, published 2012).

What was measured:
Type in all cases: in vivo
[1] = system: Ipomea hederaceae (IPOHE); test: Pre-emergence biological efficacy, glasshouse pot test; conditions: Ipomoea hederacea, 312 h, 1,000 g/ha, evaluated after 13 days, 100=total damage, 0=no damage, read-out: Percentage damage caused to weed species, pre-emergence, IPOHE
In short: (§1)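 Sow seeds in pots of standard soil; hold one day at 24/16 °C, 14 h light, 65% humidity. Spray compound at 1000 or 250 g/ha (acetone/water 50:50, 0.5% Tween 20). Grow on under the same conditions, watering twice daily, and score damage at day 13.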

[2] = system: Amaranthus retroflexus (AMARE); test: as above; conditions: 312 h, 1,000 g/ha, evaluated after 13 days, 100=total damage, 0=no damage, read-out: Percentage damage caused to weed species, pre-emergence, AMARE
In short: as §1

[3] = system: Echinochloa crus-galli (ECHCG); test: as above; conditions: 312 h, 1,000 g/ha, evaluated after 13 days, 100=total damage, 0=no damage, read-out: Percentage damage caused to weed species, pre-emergence, ECHCG
In short: as §1

Setaria faberi (SETFA) [4] = test: as above; conditions: 312 h, 1,000 g/ha, evaluated after 13 days, 100=total damage, 0=no damage, read-out: Percentage damage caused to weed species, pre-emergence, SETFA
In short: as §1

Solanum nigrum (SOLNI) [5] = test: as above; conditions: 312 h, 1,000 g/ha, evaluated after 13 days, 100=total damage, 0=no damage, read-out: Percentage damage caused to weed species, pre-emergence, SOLNI
In short: as §1

[6] = system: Alopecurus myosuroides (ALOMY); test: as above; conditions: 312 h, 1,000 g/ha, evaluated after 13 days, 100=total damage, 0=no damage, read-out: Percentage damage caused to weed species, pre-emergence, ALOMY
In short: as §1

[7] = system: Ipomea hederaceae (IPOHE); test: Post-emergence biological efficacy, glasshouse pot test; conditions: Ipomoea hederacea, 312 h, 1,000 g/ha, evaluated after 13 days, 100=total damage, 0=no damage, read-out: Percentage damage caused to weed species, post-emergence, IPOHE
In short: (§2)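 Visual damage ratings (100 total kill, 0 no effect) were taken 13 days after spraying. Plants had been grown 8 days from seed before a single application of 1000 or 250 g/ha in aqueous acetone (50:50) containing 0.5% Tween 20.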

[8] = system: Amaranthus retroflexus (AMARE); test: as above; conditions: 312 h, 1,000 g/ha, evaluated after 13 days, 100=total damage, 0=no damage, read-out: Percentage damage caused to weed species, post-emergence, AMARE
In short: as §2

[9] = system: Echinochloa crus-galli (ECHCG); test: as above; conditions: 312 h, 1,000 g/ha, evaluated after 13 days, 100=total damage, 0=no damage, read-out: Percentage damage caused to weed species, post-emergence, ECHCG
In short: as §2

Setaria faberi (SETFA) [10] = test: as above; conditions: 312 h, 1,000 g/ha, evaluated after 13 days, 100=total damage, 0=no damage, read-out: Percentage damage caused to weed species, post-emergence, SETFA
In short: as §2

Solanum nigrum (SOLNI) [11] = test: as above; conditions: 312 h, 1,000 g/ha, evaluated after 13 days, 100=total damage, 0=no damage, read-out: Percentage damage caused to weed species, post-emergence, SOLNI
In short: as §2

[12] = system: Alopecurus myosuroides (ALOMY); test: as above; conditions: 312 h, 1,000 g/ha, evaluated after 13 days, 100=total damage, 0=no damage, read-out: Percentage damage caused to weed species, post-emergence, ALOMY
In short: as §2

Row | Structure (SMILES) | pest or weed control at 1000 g/ha [1] | pest or weed control at 1000 g/ha [2] | pest or weed control at 1000 g/ha [3] | pest or weed control at 1000 g/ha (Setaria faberi (SETFA) [4]) | pest or weed control at 1000 g/ha (Solanum nigrum (SOLNI) [5]) | pest or weed control at 1000 g/ha [6] | pest or weed control at 1000 g/ha [7] | pest or weed control at 1000 g/ha [8] | pest or weed control at 1000 g/ha [9] | pest or weed control at 1000 g/ha (Setaria faberi (SETFA) [10]) | pest or weed control at 1000 g/ha (Solanum nigrum (SOLNI) [11]) | pest or weed control at 1000 g/ha [12]
1 | COC(=O)c1nc(Cl)cc(NCc2cccs2)c1Cl [Compound 75-2, 3,6-Dichloro-4-(thiophen-2-ylmethylamino)-pyridine-2-carboxylic acid methyl ester] | 90% | 100% | 60% | 80% | 100% | 70% | 70% | 100% | 70% | 80% | 100% | 60%
2 | COC(=O)c1nc(Cl)cc(NCc2ccco2)c1Cl [Compound 26-2, 3,6-dichloro-4-[(furan-2-ylmethyl)-amino]-pyridine-2-carboxylic acid methyl ester] | 90% | 100% | 30% | 90% | 100% | 70% | 60% | 100% | 30% | 90% | 100% | 40%
3 | COC(=O)c1nc(Cl)cc(NCc2ccc(Cl)cc2)c1Cl [Compound 5-2, 4-[(4-Chlorophenyl-methyl)-amino]-3,6-dichloro-pyridine-2-carboxylic acid methyl ester] | 90% | 100% | 10% | 50% | 100% | 20% | 70% | 100% | 50% | 70% | 100% | 50%
4 | COC(=O)c1nc(Cl)c(Cl)c(NCc2ccccc2[N+](=O)[O-])c1Br [Compound 15-41, 3-bromo-5,6-dichloro-4-[(2-nitrophenyl-methyl)-amino]-pyridine-2-carboxylic acid methyl ester] | 100% | 100% | 40% | 30% | 80% | 20% | 80% | 100% | 0% | 70% | 100% | 10%
5 | C=Cc1c(NCC2CC2)cc(Cl)nc1C(=O)OC [Compound 1-12, 6-chloro-4-cyclopropylmethylamino-3-ethenyl-pyridine-2-carboxylic acid methyl ester] | 90% | 100% | 90% | 90% | 100% | 80% | 70% | 100% | 80% | 90% | 90% | 70%
6 | COC(=O)c1nc(Cl)cc(NCC2CCCCC2)c1Cl [Compound 67-2, 4- Cyclohexylmethyl amino-3,6-dichloro-pyridine-2-carboxylic acid methyl ester] | 80% | 100% | 10% | 60% | 90% | 20% | 70% | 100% | 20% | 20% | 100% | 30%
